Where a SMILES comes first, the peptide text is derived from it. Bridges are numbered along the chain shown (N, C = ends). [ ]: non-standard residue; d: D form. The star is where a group is joined. hPhe(3-Cl-4-CF3) = N[C@@H](CCc1ccc(C(F)(F)F)c(Cl)c1)C(=O)O; NPrPhe(4-CF3) = CCCN[C@@H](Cc1ccc(C(F)(F)F)cc1)C(=O)O; NMeGly(cPent) = CN[C@H](C(=O)O)C1CCCC1; Pro(4,4-F2) = O=C(O)[C@@H]1CC(F)(F)CN1; NMeD = CN[C@@H](CC(=O)O)C(=O)O; NMeL = CN[C@@H](CC(C)C)C(=O)O; Morpholide = C1CN(*)CCO1; Ac4c = NC1(C(=O)O)CCC1; Sar = CNCC(=O)O
What was measured:
[1] = molecular target: GDP-bound NRAS wild-type protein (Homo sapiens, UniProt P01111); assay: Binding to NRAS by surface plasmon resonance (SPR), KD and KD ratio to KRAS
GDP-bound NRAS wild-type protein, sequence (P01111 whole entry): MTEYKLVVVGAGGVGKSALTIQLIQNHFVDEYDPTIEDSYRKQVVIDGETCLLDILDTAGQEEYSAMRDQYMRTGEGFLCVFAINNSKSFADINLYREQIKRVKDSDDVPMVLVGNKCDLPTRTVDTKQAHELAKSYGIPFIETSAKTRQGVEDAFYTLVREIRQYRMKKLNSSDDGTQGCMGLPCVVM
Outline: (§1)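 Biotinylated GDP-bound RAS was captured at about 100–300 RU. Running buffer: HBS pH 7.4, 10 mM MgCl2, 10 µM GDP, 1 mM DTT, 0.01% Tween 20, 4% DMSO.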

HRAS wild-type protein = HRAS wild-type protein (Homo sapiens, UniProt P01112); assay: Binding to HRAS by surface plasmon resonance (SPR), KD and KD ratio to KRAS
HRAS wild-type protein, sequence (P01112 whole entry): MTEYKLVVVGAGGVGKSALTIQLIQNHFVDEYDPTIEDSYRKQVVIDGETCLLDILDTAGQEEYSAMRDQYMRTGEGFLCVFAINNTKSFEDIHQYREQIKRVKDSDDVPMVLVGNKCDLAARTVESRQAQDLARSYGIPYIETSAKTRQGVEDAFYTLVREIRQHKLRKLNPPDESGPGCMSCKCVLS
Outline: as §1

[2] = test system: human lung cancer strain NCI-H441; assay type: cell-based
Outline: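 Step one: dispense the test compound in serial DMSO dilutions. Step three: add the reagent and measure […].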

[3] = ratio of the KD value with respect to GDP-bound NRAS wild-type protein to the KD value with respect to KRAS
[4] = ratio of the KD value with respect to HRAS wild-type protein to the KD value with respect to KRAS
[5] = ratio of KD for GDP-bound NRAS wild-type protein to KD for KRAS
[6] = ratio of KD for HRAS wild-type protein to KD for KRAS
[7] = ratio of KD value for GDP-bound NRAS wild-type protein to KD value for KRAS (SPR)
[8] = ratio of KD value for HRAS wild-type protein to KD value for KRAS (SPR)

| IC50 [2] [nM] | SMILES | NRAS /KRAS [1, 3] | HRAS /KRAS (HRAS wild-type protein; [4]) | NRAS /KRAS [1, 5] | HRAS /KRAS (HRAS wild-type protein; [6]) | NRAS /KRAS [1, 7] | HRAS /KRAS (HRAS wild-type protein; [8]) |
| --- | --- | --- | --- | --- | --- | --- | --- |
| 16.9 | CCO[C@@H]1C[C@H]2C(=O)NC3(CC(C)(C)C3)C(=O)N(C)[C@@H](C(CC)CC)C(=O)N(C)[C@H](C(=O)N(C)C)CC(=O)N(C)[C@@H](CC(C)C)C(=O)N[C@@H]([C@@H](C)CC)C(=O)N(C)CC(=O)N(C)[C@H]3C/C=C\CCN(C3=O)[C@@H](Cc3ccc(C)cc3)C(=O)N(C)CC(=O)N[C@@H](CCc3ccc(C(F)(F)F)c(OC)c3)C(=O)N2C1 [PP2168] | A (a compound having 10 or more and less than 20 is denoted as A) | A (a compound having 10 or more and less than 20 is denoted as A) | – | – | – | – |
| 22.4 | CCO[C@@H]1C[C@H]2C(=O)NC3(CCC3)C(=O)N(C)[C@@H](C3CCCCC3)C(=O)N(C)[C@H](C(=O)N(C)C)CC(=O)N(C)[C@@H](CC)C(=O)N[C@@H]([C@@H](C)CC)C(=O)N(C)CC(=O)N(C)[C@H]3C/C=C\CCN(C3=O)[C@@H](Cc3ccc(C(F)(F)F)cc3)C(=O)N(C)CC(=O)N[C@@H](CCc3cc(F)c(C(F)(F)F)c(F)c3)C(=O)N2C1 [PP1086] | – | – | AA (a compound having 20 or more is denoted as AA) | A (a compound having 10 or more and less than 20 is denoted as A) | – | – |
| 64.1 | CCC[C@H]1C(=O)N[C@@H]([C@@H](C)CC)C(=O)N(C)CC(=O)N(C)[C@H]2C/C=C\CCN(C2=O)[C@@H](Cc2ccc(C(F)(F)F)cc2)C(=O)N(C)CC(=O)N[C@@H](CCc2cc(F)c(C(F)F)c(F)c2)C(=O)N2C[C@H](OCC)C[C@H]2C(=O)NC2(CC(C)(C)C2)C(=O)N(C)[C@@H](C(CC)CC)C(=O)N(C)[C@H](C(=O)N(C)C)CC(=O)N1C [PP2781] | – | – | AA (a compound having 20 or more is denoted as AA) | A (a compound having 10 or more and less than 20 is denoted as A) | – | – |
| 20.9 | CC[C@H](C)[C@@H]1NC(=O)[C@H](CC(C)C)N(C)C(=O)C[C@@H](C(=O)N2CCOCC2)N(C)C(=O)[C@H](C2CCCC2)N(C)C(=O)C2(CCCCC2)NC(=O)[C@@H]2CCCN2C(=O)[C@H](CCc2cc(F)c(C(F)(F)F)c(F)c2)NC(=O)CN(C)C(=O)[C@H](Cc2ccc(C(F)(F)F)cc2)N2CCCC[C@@H](C2=O)N(C)C(=O)CN(C)C1=O [PP0561] | B (a compound having 3 or more and less than 10 is denoted as B) | B (a compound having 3 or more and less than 10 is denoted as B) | – | – | – | – |
| 24.2 | C#CC[C@H]1C(=O)N[C@@H]([C@@H](C)CC)C(=O)N(C)CC(=O)N(C)[C@H]2CCCCCN(C2=O)[C@@H](Cc2ccc(C(F)(F)F)cc2)C(=O)N(C)CC(=O)N[C@@H](CCc2cc(F)c(C(F)(F)F)c(F)c2)C(=O)N2C[C@H](OCC)C[C@H]2C(=O)NC2(CCC2)C(=O)N(C)[C@@H](C2CCCC2)C(=O)N(C)[C@H](C(=O)N2CCOCC2)CC(=O)N1C [PP0681] | B (a compound having 3 or more and less than 10 is denoted as B) | B (a compound having 3 or more and less than 10 is denoted as B) | – | – | – | – |
| 20.8 | CCO[C@@H]1C[C@H]2C(=O)NC3(CCC3)C(=O)N(C)[C@@H](C3CCCC3)C(=O)N(CC)[C@H](C(=O)N3CCOCC3)CC(=O)N(C)[C@@H](CC(C)C)C(=O)N[C@@H]([C@@H](C)CC)C(=O)N(C)CC(=O)N(C)[C@H]3CCCCN(C3=O)[C@@H](Cc3ccc(C(F)(F)F)cc3)C(=O)N(C)CC(=O)N[C@@H](CCc3cc(F)c(C(F)(F)F)c(F)c3)C(=O)N2C1 [PP0648] | B (a compound having 3 or more and less than 10 is denoted as B) | B (a compound having 3 or more and less than 10 is denoted as B) | – | – | – | – |
| 16.2 | CCC[C@@H]1C[C@H]2C(=O)NC3(CCC3)C(=O)N(C)[C@@H](C3CCCC3)C(=O)N(C)[C@H](C(=O)N(C)C)CC(=O)N(C)[C@@H](CC(C)C)C(=O)N[C@@H]([C@@H](C)CC)C(=O)N(C)CC(=O)N(C)[C@H]3C/C=C\CCN(C3=O)[C@@H](Cc3ccc(C)cc3)C(=O)N(C)CC(=O)N[C@@H](CCc3cc(F)c(C(F)(F)F)c(F)c3)C(=O)N2C1 [PP2231] | A (a compound having 10 or more and less than 20 is denoted as A) | B (a compound having 3 or more and less than 10 is denoted as B) | – | – | – | – |
| 37 | CCC[C@H]1C(=O)N[C@@H](C(CC)CC)C(=O)N(C)CC(=O)N(C)[C@H]2C/C=C\CCN(C2=O)[C@@H](Cc2ccc(C)cc2)C(=O)N(C)CC(=O)N[C@@H](CCc2ccc(C(F)(F)F)c(Cl)c2)C(=O)N2C[C@H](OCC)C[C@H]2C(=O)NC2(CC(C)(C)C2)C(=O)N(C)[C@@H](C2CCCC2)C(=O)N(C)[C@H](C(=O)N(C)C)CC(=O)N1C [PP2209] | A (a compound having 10 or more and less than 20 is denoted as A) | A (a compound having 10 or more and less than 20 is denoted as A) | – | – | – | – |
| 6.2 | CCO[C@@H]1C[C@H]2C(=O)NC3(CCC3)C(=O)N(C)[C@@H](C3CCCC3)C(=O)N(C)[C@H](C(=O)N(C)C)CC(=O)N(C)[C@@H](CC)C(=O)N[C@@H]([C@@H](C)CC)C(=O)N(C)CC(=O)N(C)[C@H]3CCCCN(C3=O)[C@@H](Cc3ccc(C(F)(F)F)cc3)C(=O)N(C)CC(=O)N[C@@H](CCc3ccc(C(F)(F)F)c(OC)c3)C(=O)N2C1 [PP0884] | – | – | C (A compound having a KD ratio of 0.1 or more and less than 3 is denoted as C) | C (A compound having a KD ratio of 0.1 or more and less than 3 is denoted as C) | – | – |
| 5.1 | CCO[C@@H]1C[C@H]2C(=O)NC3(CC(C)(C)C3)C(=O)N(C)[C@@H](C3CCCC3)C(=O)N(C)[C@H](C(=O)N(C)C)CC(=O)N(C)[C@@H](C)C(=O)N[C@@H]([C@@H](C)CC)C(=O)N(C)CC(=O)N(C)[C@H]3C/C=C\CCN(C3=O)[C@@H](Cc3ccc(C(F)(F)F)cc3)C(=O)N(C)CC(=O)N[C@@H](CCc3ccc(C(F)(F)F)c(OC)c3)C(=O)N2C1 [PP1674] | – | – | – | – | A (a compound having 10 or more and less than 20 is denoted as A) | A (a compound having 10 or more and less than 20 is denoted as A) |
| 27.7 | CCO[C@@H]1C[C@H]2C(=O)NC3(CCC3)C(=O)N(C)[C@@H](C3CCCC3)C(=O)N(C)[C@H](C(=O)N3CCOCC3)CC(=O)N(C)[C@@H](CC(C)C)C(=O)N[C@@H]([C@@H](C)CC)C(=O)N(C)CC(=O)N(C)[C@H]3CCCCCN(C3=O)[C@@H](Cc3ccc(F)cc3Cl)C(=O)N(C)CC(=O)N[C@@H](CCc3cc(F)c(C(F)(F)F)c(F)c3)C(=O)N2C1 [PP0918] | – | – | B (a compound having 3 or more and less than 10 is denoted as B) | B (a compound having 3 or more and less than 10 is denoted as B) | – | – |
| 33.6 | CCO[C@@H]1C[C@H]2C(=O)NC3(CCC3)C(=O)N(C)[C@@H](C(CC)CC)C(=O)N(C)[C@H](C(=O)N(C)C)CC(=O)N(C)[C@@H](CC3CCCC3)C(=O)N[C@@H]([C@@H](C)CC)C(=O)N(C)CC(=O)N(C)[C@H]3C/C=C\CCN(C3=O)[C@@H](Cc3ccc(F)cc3)C(=O)N(C)CC(=O)N[C@@H](CCc3cc(F)c(C(F)(F)F)c(F)c3)C(=O)N2C1 [PP1517] | – | – | – | – | A (a compound having 10 or more and less than 20 is denoted as A) | A (a compound having 10 or more and less than 20 is denoted as A) |
| 0.8 | CCCN1C(=O)CN(C)C(=O)CNC(=O)[C@H]([C@@H](C)CC)NC(=O)[C@H](CC(C)C)N(C)C(=O)C[C@@H](C(=O)N2CCOCC2)N(C)C(=O)[C@H](C2CCCC2)N(C)C(=O)C2(CCC2)NC(=O)[C@@H]2CC(F)(F)CN2C(=O)[C@H](CCc2ccc(C(F)(F)F)c(Cl)c2)NC(=O)CN(C)C(=O)[C@@H]1Cc1ccc(C(F)(F)F)cc1 [PP0395] ([NMeL]IG[Sar][NPrPhe(4-CF3)][Sar][hPhe(3-Cl-4-CF3)][Pro(4,4-F2)][Ac4c][NMeGly(cPent)][NMeD]-Morpholide; lactam N-11) | B (a compound having 3 or more and less than 10 is denoted as B) | C (A compound having a KD ratio of 0.1 or more and less than 3 is denoted as C) | – | – | – | – |
| 2.2 | CCC[C@H]1C(=O)N[C@@H]([C@@H](C)CC)C(=O)N(C)CC(=O)N(C)[C@H]2C/C=C\CCN(C2=O)[C@@H](Cc2ccc(C(F)(F)F)cc2)C(=O)N(C)CC(=O)N[C@@H](CCc2cc(F)c(C(F)(F)F)c(F)c2)C(=O)N2C[C@H](OCC)C[C@H]2C(=O)NC2(CC(F)(F)C2)C(=O)N(C)[C@@H](C2CCCC2)C(=O)N(C)[C@H](C(=O)N(C)CC)CC(=O)N1C [PP1735] | – | – | – | – | AA (a compound having 20 or more is denoted as AA) | A (a compound having 10 or more and less than 20 is denoted as A) |
| 11.3 | CCCC[C@H]1C(=O)N[C@@H]([C@@H](C)CC)C(=O)N(C)CC(=O)N(C)[C@H]2C/C=C\CCN(C2=O)[C@@H](Cc2ccc(C(F)(F)F)cc2)C(=O)N(C)CC(=O)N[C@@H](CCc2cc(F)c(C(F)(F)F)c(F)c2)C(=O)N2C[C@H](OCC)C[C@H]2C(=O)NC2(CC(C)(C)C2)C(=O)N(C)[C@@H](C2CCCC2)C(=O)N(C)[C@H](C(=O)N(C)CC)CC(=O)N1C [PP2806] | – | – | A (a compound having 10 or more and less than 20 is denoted as A) | A (a compound having 10 or more and less than 20 is denoted as A) | – | – |
| 67.2 | CCO[C@@H]1C[C@H]2C(=O)NC3(CCC3)C(=O)N(C)[C@@H](C3CCCC3)C(=O)N(C)[C@H](C(=O)N(C)C)CC(=O)N(C)[C@@H](CC(C)C)C(=O)N[C@@H]([C@@H](C)CC)C(=O)N3CC[C@H]3C(=O)N(C)[C@H]3CC(C)=CCN(C3=O)[C@@H](Cc3ccc(C(F)(F)F)cc3)C(=O)N(C)CC(=O)N[C@@H](CCc3cc(F)c(C(F)(F)F)c(F)c3)C(=O)N2C1 [PP1033] | – | – | C (A compound having a KD ratio of 0.1 or more and less than 3 is denoted as C) | C (A compound having a KD ratio of 0.1 or more and less than 3 is denoted as C) | – | – |

From patent EP4603105A1, “PHARMACEUTICAL COMPOSITION CONTAINING CYCLIC COMPOUND HAVING SELECTIVE KRAS INHIBITORY EFFECT AGAINST HRAS AND NRAS” (CHUGAI SEIYAKU KABUSHIKI KAISHA, priority 2022, dated 2024)
